What was measured:
hERG K+ channel = hERG K+ channel (Homo sapiens (Human), UniProt Q12809); test: hERG assay, IonWorks patch clamp electrophysiology; type: cell-based; settings: Chinese Hamster Lung cell line stably expressing hERG, IonWorks Quattro, max 11 uM
Protocol: Compounds of the invention were tested for inhibition of the human ether a go-go related gene (hERG) K^+ channel using IonWorks patch clamp electrophysiology. 8 Point concentration-response curves were generated on two occasions using 3-fold serial dilutions from the maximum assay concentration (11 uM). Electrophysiological recordings were made from a Chinese Hamster Lung cell line stably expressing the full length hERG channel. Single cell ion currents were measured in the perforated patch clamp configuration (100 ug/mL amphoterocin) at room temperature using an IonWorks Quattro instrument. The internal solution contained 140 mM KCl, 1 mM MgCl2, 1 mM EGTA and 20 mM HEPES and was buffered to pH 7.3. The external solution contained 138 mM NaCl, 2.7 mM KCl, 0.9 mM CaCl2, 0.5 mM MgCl2, 8 mM Na2HPO4 and 1.5 mM KH2PO4, and was buffered to pH 7.3. Cells were clamped at a holding potential of […] for 30 s and then stepped to +40 mV for 1 s. This was followed by a hyperpolarising step of 1 s to […] to evoke the hERG tail current. This sequence was repeated 5 times at a frequency of 0.25 Hz. Currents were measured from the tail step at the 5th pulse, and referenced to the holding current. […] A minimum of 17 cells were required for each pIC50 curve fit.

human SSAO = human SSAO (Homo sapiens (Human), UniProt Q16853); test: SSAO enzyme inhibition assay (benzylamine substrate; hydrogen peroxide/HRP or aldehyde detection); type: biochemical; settings: purified recombinantly expressed human SSAO, RT
Sequence of human SSAO (Q16853 whole entry): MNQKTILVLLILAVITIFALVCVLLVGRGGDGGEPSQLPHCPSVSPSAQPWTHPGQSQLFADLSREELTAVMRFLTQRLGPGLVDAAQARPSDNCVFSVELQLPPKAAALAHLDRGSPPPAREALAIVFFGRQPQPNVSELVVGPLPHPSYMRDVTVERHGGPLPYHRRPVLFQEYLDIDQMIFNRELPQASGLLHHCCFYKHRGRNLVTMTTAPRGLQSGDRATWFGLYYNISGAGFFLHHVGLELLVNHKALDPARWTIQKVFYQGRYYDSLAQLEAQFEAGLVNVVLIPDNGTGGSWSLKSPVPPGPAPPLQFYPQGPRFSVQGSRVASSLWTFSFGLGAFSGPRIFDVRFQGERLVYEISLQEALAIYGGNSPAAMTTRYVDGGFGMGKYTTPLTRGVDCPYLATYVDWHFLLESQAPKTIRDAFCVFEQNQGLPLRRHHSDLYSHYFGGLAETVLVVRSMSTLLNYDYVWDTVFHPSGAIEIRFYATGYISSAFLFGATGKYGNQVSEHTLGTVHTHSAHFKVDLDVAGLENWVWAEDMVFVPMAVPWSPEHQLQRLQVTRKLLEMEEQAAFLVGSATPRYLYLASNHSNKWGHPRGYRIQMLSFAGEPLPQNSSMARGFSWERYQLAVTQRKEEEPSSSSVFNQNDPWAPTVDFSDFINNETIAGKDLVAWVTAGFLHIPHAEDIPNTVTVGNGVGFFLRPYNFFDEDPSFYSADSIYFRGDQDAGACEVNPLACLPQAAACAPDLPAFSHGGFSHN
Protocol: All primary assays were performed at RT. with purified recombinantly expressed human SSAO. Enzyme was prepared essentially as described in Öhman et al. (Protein Expression and Purification 46 (2006) 321-331). In addition, secondary- and selectivity assays were performed using SSAO prepared from various tissues or purified rat recombinant SSAO. The enzyme activity was assayed with benzylamine as substrate by measuring either benzaldehyde production, using ^14C-labeled substrate, or by utilizing the production of hydrogen peroxide in a horseradish peroxidase (HRP) coupled reaction. Briefly, test compounds were dissolved in dimethyl sulfoxide (DMSO) to a concentration of 10 mM. Dose-response measurements were assayed by either creating 1:10 serial dilutions in DMSO to produce a 7 point curve or by making 1:3 serial dilutions in DMSO to produce 11 point curves. The top concentrations were adjusted depending on the potency of the compounds and subsequent dilution in reaction buffer yielded a final DMSO concentration ≦2%.
In a horseradish peroxidase (HRP) coupled reaction, hydrogen peroxide oxidation of 10-acetyl-3,7-dihydroxyphenoxazine produced resorufin, which is a highly fluorescent compound (Zhout and Panchuk-Voloshina. Analytical Biochemistry 253 (1997) 169-174; Amplex® Red Hydrogen Peroxide/peroxidase Assay kit, Invitrogen A22188). Enzyme and compounds in 50 mM sodium phosphate, pH 7.4 were set to pre-incubate in flat-bottomed microtiter plates for approximately 15 min before initiating the reaction by addition of a mixture of HRP, benzylamine and Amplex reagent. Benzylamine concentration was fixed at a concentration corresponding to the Michaelis constant, determined using standard procedures. Fluorescence intensity was then measured at several time points during 1-2 h, exciting at 544 nm and reading the emission at 590 nm. For the human SSAO assay final concentrations of the reagents in the assay wells were: SSAO enzyme 1 ug/ml, benzylamine 100 uM, Amplex reagent 20 uM, HRP 0.1 U/mL and varying concentrations of test compound. The inhibition was measured as % decrease of the signal compared to a control without inhibitor (only diluted DMSO). The background signal from a sample containing no SSAO enzyme was subtracted from all data points. Data was fitted to a four parameter logistic model and IC50 values were calculated using the GraphPad Prism 4 or XLfit 4 programs.
SSAO activity was assayed using […] benzylamine and analysed by measuring radioactive benzaldehyde. In a white 96-well optiplate (Packard), 20 uL of diluted test compound was pre-incubated at room temperature with 20 uL SSAO enzyme for approximately 15 min with continuous agitation. All dilutions were made with PBS. The reaction was initiated by adding 20 uL of the benzylamine substrate solution containing Benzylamine hydrochloride (CFA589, GE Healthcare). The plate was incubated for 1 h as above after which the reaction was stopped by acidification (10 uL 1M aq HCl). Then 90 uL Micro Scint-E solution (Perkin-Elmer) was added to each well and the plate was continuously mixed for 15 min. Phase separation occurred instantly and activity was read in a Topcount scintillation counter (Perkin-Elmer). In the final reaction well, the human recombinant SSAO concentration was 10 ug/ml. In order to optimize sensitivity, the substrate concentration was decreased as compared to the HRP coupled assay in order to get a higher fraction of radioactive product. In the human SSAO assay, benzylamine concentration was 40 uM (0.2 uCi/mL). Data was analysed as above.

Sequence of hERG K+ channel (Q12809 whole entry): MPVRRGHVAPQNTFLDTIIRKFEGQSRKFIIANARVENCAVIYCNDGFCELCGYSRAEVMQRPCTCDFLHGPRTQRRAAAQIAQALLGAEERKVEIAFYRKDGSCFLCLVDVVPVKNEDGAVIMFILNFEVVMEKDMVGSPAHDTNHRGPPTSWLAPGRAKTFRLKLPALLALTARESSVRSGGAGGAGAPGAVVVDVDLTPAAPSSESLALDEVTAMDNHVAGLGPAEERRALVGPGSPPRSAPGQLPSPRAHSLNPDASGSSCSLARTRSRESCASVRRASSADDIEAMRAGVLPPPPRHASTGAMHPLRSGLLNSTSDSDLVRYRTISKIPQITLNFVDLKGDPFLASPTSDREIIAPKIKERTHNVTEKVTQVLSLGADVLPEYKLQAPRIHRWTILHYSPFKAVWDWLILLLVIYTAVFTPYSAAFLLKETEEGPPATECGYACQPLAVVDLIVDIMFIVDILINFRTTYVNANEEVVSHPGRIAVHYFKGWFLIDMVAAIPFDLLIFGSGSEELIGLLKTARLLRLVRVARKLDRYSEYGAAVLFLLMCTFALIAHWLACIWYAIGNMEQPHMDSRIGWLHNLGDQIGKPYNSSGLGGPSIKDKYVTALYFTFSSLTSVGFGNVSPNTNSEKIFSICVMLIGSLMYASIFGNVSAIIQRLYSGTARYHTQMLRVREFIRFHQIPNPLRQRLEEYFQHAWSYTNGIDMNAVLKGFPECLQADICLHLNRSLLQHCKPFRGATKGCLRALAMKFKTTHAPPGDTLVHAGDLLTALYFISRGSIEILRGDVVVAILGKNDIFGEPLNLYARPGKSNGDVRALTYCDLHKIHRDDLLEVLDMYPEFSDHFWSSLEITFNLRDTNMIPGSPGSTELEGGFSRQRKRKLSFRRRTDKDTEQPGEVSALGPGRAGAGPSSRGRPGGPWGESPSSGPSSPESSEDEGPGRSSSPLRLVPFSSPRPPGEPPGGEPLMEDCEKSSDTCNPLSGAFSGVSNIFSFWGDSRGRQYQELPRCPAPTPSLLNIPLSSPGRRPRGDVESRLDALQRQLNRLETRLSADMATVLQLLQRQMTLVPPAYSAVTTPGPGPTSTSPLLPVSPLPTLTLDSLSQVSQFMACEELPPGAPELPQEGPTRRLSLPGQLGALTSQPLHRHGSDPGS

Compound	IC50 (hERG K+ channel; human, pH 7.3) [µM]	IC50 (human SSAO) [µM]	IC50 (hERG K+ channel) [µM]
NC(=O)N1CCC(c2c(-c3ccc(N)nc3)n(-c3ccc(Cl)cc3)c3cnccc23)CC1 [Example 1, 4-[2-(6-Aminopyridin-3-yl)-1-(4-chlorophenyl)-1H-pyrrolo[2,3-c]pyridin-3-yl]piperidine-1-carboxamide]	1 to 10	< 0.01	–
NC(=O)N1CCC(c2c(-c3cccnc3)n(-c3ccc(Cl)cc3)c3cnccc23)CC1 [Example 2, 4-[1-(4-Chlorophenyl)-2-(pyridin-3-yl)-1H-pyrrolo[2,3-c]pyridin-3-yl]piperidine-1-carboxamide; formic acid]	1 to 10	0.01 to 0.1	–
COc1ccc(-c2c(C3CCN(C(N)=O)CC3)c3ccncc3n2-c2ccc(Cl)cc2)cn1 [Example 3, 4-[1-(4-Chlorophenyl)-2-(6-methoxypyridin-3-yl)-1H-pyrrolo[2,3-c]pyridin-3-yl]piperidine-1-carboxamide; formic acid]	–	< 0.01	–
COc1cc(-c2c(C3CCN(C(N)=O)CC3)c3ccncc3n2-c2ccc(Cl)cc2)ccn1 [Example 4, 4-[1-(4-Chlorophenyl)-2-(2-methoxypyridin-4-yl)-1H-pyrrolo[2,3-c]pyridin-3-yl]piperidine-1-carboxamide; formic acid]	–	< 0.01	0.1 to 1
CN1CCN(c2cc(-c3c(C4CCN(C(N)=O)CC4)c4ccncc4n3-c3ccc(Cl)cc3)ccn2)CC1 [Example 5, 4-[1-(4-Chlorophenyl)-2-[2-(4-methylpiperazin-1-yl)pyridin-4-yl]-1H-pyrrolo[2,3-c]pyridin-3-yl]piperidine-1-carboxamide; bis(formic acid)]	–	< 0.01	–
NC(=O)N1CCC(c2c(-c3ccc(N4CCOCC4)nc3)n(-c3ccc(Cl)cc3)c3cnccc23)CC1 [Example 6, 4-[1-(4-Chlorophenyl)-2-[6-(morpholin-4-yl)pyridin-3-yl]-1H-pyrrolo[2,3-c]pyridin-3-yl]piperidine-1-carboxamide]	–	< 0.01	–
NC(=O)N1CCC(c2c(-c3cncnc3)n(-c3ccc(Cl)cc3)c3cnccc23)CC1 [Example 7, 4-[1-(4-Chlorophenyl)-2-(pyrimidin-5-yl)-1H-pyrrolo[2,3-c]pyridin-3-yl]piperidine-1-carboxamide]	1 to 10	0.01 to 0.1	–
NC(=O)N1CCC(c2c(-c3cc[nH]n3)n(-c3ccc(Cl)cc3)c3cnccc23)CC1 [Example 8, 4-[1-(4-Chlorophenyl)-2-(1H-pyrazol-3-yl)-1H-pyrrolo[2,3-c]pyridin-3-yl]piperidine-1-carboxamide]	1 to 10	0.01 to 0.1	–
NC(=O)N1CCC(c2c(-c3cn[nH]c3)n(-c3ccc(Cl)cc3)c3cnccc23)CC1 [Example 9, 4-[1-(4-Chlorophenyl)-2-(1H-pyrazo1-4-yl)-1H-pyrrolo[2,3-c]pyridin-3-yl]piperidine-1-carboxamide]	–	< 0.01	> 10
Cn1cc(-c2c(C3CCN(C(N)=O)CC3)c3ccncc3n2-c2ccc(Cl)cc2)cn1 [Example 10, 4-[1-(4-Chlorophenyl)-2-(1-methyl-1H-pyrazol-4-yl)-1H-pyrrolo[2,3-c]pyridin-3-yl]piperidine-1-carboxamide; trifluoroacetic acid]	–	< 0.01	–
Cn1nccc1-c1c(C2CCN(C(N)=O)CC2)c2ccncc2n1-c1ccc(Cl)cc1 [Example 11, 4-[1-(4-Chlorophenyl)-2-(1-methyl-1H-pyrazol-5-yl)-1H-pyrrolo[2,3-c]pyridin-3-yl]piperidine-1-carboxamide]	–	< 0.01	–
Cn1cncc1-c1c(C2CCN(C(N)=O)CC2)c2ccncc2n1-c1ccc(Cl)cc1 [Example 12, 4-[1-(4-Chlorophenyl)-2-(1-methyl-1H-imidazol-5-yl)-1H-pyrrolo[2,3-c]pyridin-3-yl]piperidine-1-carboxamide]	–	< 0.01	> 10
NC(=O)N1CCC(c2c(-n3cccn3)n(-c3ccc(Cl)cc3)c3cnccc23)CC1 [Example 13, 4-[1-(4-Chlorophenyl)-2-(1H-pyrazol-1-yl)-1H-pyrrolo[2,3-c]pyridin-3-yl]piperidine-1-carboxamide; formic acid]	1 to 10	0.01 to 0.1	–
NC(=O)N1CCC(c2c(-n3ccnc3)n(-c3ccc(Cl)cc3)c3cnccc23)CC1 [Example 14, 4-[1-(4-Chlorophenyl)-2-(1H-imidazol-1-yl)-1H-pyrrolo[2,3-c]pyridin-3-yl]piperidine-1-carboxamide; bis(formic acid)]	–	0.01 to 0.1	> 10
NC(=O)N1CCC(c2c(-n3ccnn3)n(-c3ccc(Cl)cc3)c3cnccc23)CC1 [Example 15, 4-[1-(4-Chlorophenyl)-2-(1H-1,2,3-triazol-1-yl)-1H-pyrrolo[2,3-c]pyridin-3-yl]piperidine-1-carboxamide]	–	0.1 to 0.35	–
NC(=O)N1CCC(c2c(-n3cncn3)n(-c3ccc(Cl)cc3)c3cnccc23)CC1 [Example 16, 4-[1-(4-Chlorophenyl)-2-(1H-1,2,4-triazol-1-yl)-1H-pyrrolo[2,3-c]pyridin-3-yl]piperidine-1-carboxamide]	–	0.1 to 0.35	–
Clc1ccc(-n2c(-c3ccncc3)c(C3CCNCC3)c3ccncc32)cc1 [Example 17, 4-[1-(4-Chlorophenyl)-3-(piperidin-4-yl)-1H-pyrrolo[2,3-c]pyridin-2-yl]pyridine]	1 to 10	< 0.01	–
Nc1ccc(-c2c(C3CCNCC3)c3ccncc3n2-c2ccc(Cl)cc2)cn1 [Example 18, 5-[1-(4-Chlorophenyl)-3-(piperidin-4-yl)-1H-pyrrolo[2,3-c]pyridin-2-yl]pyridin-2-amine]	–	0.01 to 0.1	> 10
CN(C)Cc1c(-c2ccncc2)n(-c2ccc(Cl)cc2)c2cnccc12 [Example 19, {[1-(4-Chlorophenyl)-2-(pyridin-4-yl)-1H-pyrrolo[2,3-c]pyridin-3-yl]methyl}dimethyl amine]	1 to 10	0.01 to 0.1	–
CN(C)Cc1c(-c2cccnc2)n(-c2ccc(Cl)cc2)c2cnccc12 [Example 20, {[1-(4-Chlorophenyl)-2-(pyridin-3-yl)-1H-pyrrolo[2,3-c]pyridin-3-yl]methyl}dimethyl amine]	–	0.1 to 0.35	–
Clc1ccc(-n2c(-c3nn[nH]n3)c(C3CCNCC3)c3ccncc32)cc1 [Example 21, 4-[1-(4-Chlorophenyl)-2-(2H-1,2,3,4-tetrazol-5-yl)-1H-pyrrolo[2,3-c]pyridin-3-yl]piperidine; bis(trifluoroacetic acid)]	–	0.1 to 0.35	> 10

Source: patent publication US9580415B2, “Compounds” (Proximagen Limited, priority 2013, dated 2017)
